43 compounds from ChEMBL document CHEMBL3817828, “Design, synthesis and evaluation of novel tetrahydrothieno[3,2-c]pyridine derivatives as potent smoothened antagonists” (Medchemcomm, 2016) can be followed below.

A word on the pIC50: it is −log10 of the IC50, conventionally taken in molar units. Read a high pIC50 as a low IC50.

The nature of assay [1]: Inhibition of Hh receptor (unknown origin) expressed in SAG-stimulated mouse NIH3T3 cells incubated for 24 hrs by Gli-luciferase reporter gene assay. Format: cell-based. The settings on record: NIH3T3, 24 h. On the technique in general: In a reporter assay the amount or activity of a reporter protein is the signal.
The target in another assay is Protein smoothened (Homo sapiens, UniProt Q99835). The experiment in a line: Displacement of BODIPY-cyclopamine from human Smo expressed in HEK293 cells incubated for 3 hrs by fluorescence competitive displacement assay. Format: cell-based.

pIC50: −log10 of the molar value.

Protein smoothened, sequence (Q99835 whole entry): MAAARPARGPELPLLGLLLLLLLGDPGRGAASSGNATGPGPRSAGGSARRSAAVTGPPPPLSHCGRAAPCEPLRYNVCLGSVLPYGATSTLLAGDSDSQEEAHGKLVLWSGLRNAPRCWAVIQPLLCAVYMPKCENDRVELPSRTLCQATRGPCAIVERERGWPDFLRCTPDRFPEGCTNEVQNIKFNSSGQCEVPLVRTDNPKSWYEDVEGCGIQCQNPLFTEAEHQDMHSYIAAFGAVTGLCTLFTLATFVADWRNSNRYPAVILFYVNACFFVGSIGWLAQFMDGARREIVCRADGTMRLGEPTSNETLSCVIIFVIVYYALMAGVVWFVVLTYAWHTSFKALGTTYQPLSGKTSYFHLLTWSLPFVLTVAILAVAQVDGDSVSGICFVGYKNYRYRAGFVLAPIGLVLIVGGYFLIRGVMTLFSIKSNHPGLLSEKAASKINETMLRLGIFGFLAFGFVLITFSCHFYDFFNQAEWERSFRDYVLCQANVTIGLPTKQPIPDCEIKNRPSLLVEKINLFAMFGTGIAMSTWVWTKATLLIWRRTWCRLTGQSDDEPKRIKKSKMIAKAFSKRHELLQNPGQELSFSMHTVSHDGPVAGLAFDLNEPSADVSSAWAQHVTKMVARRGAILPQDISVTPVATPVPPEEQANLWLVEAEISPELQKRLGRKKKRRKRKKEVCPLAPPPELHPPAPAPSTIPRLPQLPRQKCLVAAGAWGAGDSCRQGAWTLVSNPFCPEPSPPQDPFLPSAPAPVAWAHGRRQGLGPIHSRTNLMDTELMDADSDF

Regarding `COc1ccccc1N1CCN(C(=O)c2cc3c(s2)CCN(c2cccc(-c4nc5ccccc5n4C)c2)C3)CC1`, the pIC50 in assay [1] was 5.63.
For `Cn1c(-c2cccc(N3CCc4sc(C(=O)N5CCN(C(=O)OC(C)(C)C)CC5)cc4C3)c2)nc2ccccc21`, the pIC50 in assay [1] was 5.68.
For `Cn1c(-c2cc(N3CCc4sc(C(=O)N5CCN(c6ccc(Cl)c(Cl)c6)CC5)cc4C3)ccc2Cl)nc2ccccc21`, the values for the pIC50 (in assay [1]; at Protein smoothened) were 6.80 and 6.67, respectively.
For `CN1CCN(C(=O)c2cc3c(s2)CCN(c2cccc(-c4nc5ccccc5n4C)c2)C3)CC1`, in that order: 6.77 and 6.49.
Consider `Cn1c(-c2cccc(N3CCc4sc(C(=O)N5CCOCC5)cc4C3)c2)nc2ccccc21`, for which the pIC50 in assay [1] was 6.68; at Protein smoothened, 6.53.
For `Cn1c(-c2cc(N3CCc4sc(C(=O)N5CCN(c6ncccn6)CC5)cc4C3)ccc2Cl)nc2ccccc21`, in that order: 7.05 and 7.04.
Regarding `Cn1c(-c2cccc(N3CCc4sc(C(=O)Nc5cccnc5)cc4C3)c2)nc2ccccc21`, the pIC50 is 6.70 in assay [1] and 6.58 on Protein smoothened.
For the compound `Cn1c(-c2cccc(N3CCc4sc(C(=O)Nc5ccccc5)cc4C3)c2)nc2ccccc21`, in assay [1], the pIC50 is 6.07.
Take `Cn1c(-c2cccc(N3CCc4sc(C(=O)N5CCN(c6ccc(Cl)c(Cl)c6)CC5)cc4C3)c2)nc2ccccc21`: the results for the pIC50 (in assay [1]; at Protein smoothened) were 6.57 and 6.34, respectively.
Consider `Cn1c(-c2cccc(N3CCc4sc(C(=O)Nc5ccc(Br)cc5)cc4C3)c2)nc2ccccc21`, for which the pIC50 in assay [1] is 6.35.
`Cc1ccc(NC(=O)c2cc3c(s2)CCN(c2cccc(-c4nc5ccccc5n4C)c2)C3)cc1`: the pIC50 in assay [1] is 5.79.
`CC1CCCCN1C(=O)c1cc2c(s1)CCN(c1cccc(-c3nc4ccccc4n3C)c1)C2` (centres undefined): the pIC50 in assay [1] is 6.48. Compared with the last compound, the pIC50 is 0.69 log units higher.
Turning to `Cn1c(-c2cc(N3CCc4sc(C(=O)N5CCOCC5)cc4C3)ccc2Cl)nc2ccccc21`, the pIC50 was 7.22 in assay [1] and 7.74 at Protein smoothened.
Turning to `Cn1c(-c2cccc(N3CCc4sc(C(=O)N5CCN(c6ccccc6)CC5)cc4C3)c2)nc2ccccc21`, the pIC50 in assay [1] was 5.88.
In the case of `Cn1c(-c2cc(N3CCc4sc(C(=O)N5CCCC5)cc4C3)ccc2Cl)nc2ccccc21`, the values for the pIC50 (in assay [1]; on Protein smoothened) were 6.66 and 6.50, respectively.
As to `Cn1c(-c2cccc(N3CCc4sc(C(=O)N5CCN(c6ccc(F)cc6)CC5)cc4C3)c2)nc2ccccc21`, the pIC50 in assay [1] was 6.49.
For the compound `CC(C)CNC(=O)c1cc2c(s1)CCN(c1cccc(-c3nc4ccccc4n3C)c1)C2`, in assay [1], the pIC50 is 5.76.
The same measure, in the same setting: under `Cn1c(-c2cccc(N3CCc4sc(C(=O)Nc5ccc(F)c(F)c5)cc4C3)c2)nc2ccccc21` stands 6.57; under `Cn1c(-c2cccc(N3CCc4sc(C(=O)N5CCN(c6cccc(C(F)(F)F)c6)CC5)cc4C3)c2)nc2ccccc21`, 5.75.
Turning to `Cn1c(-c2cccc(N3CCc4sc(C(=O)N5CCC(O)CC5)cc4C3)c2)nc2ccccc21`, the pIC50 in assay [1] is 6.55; on Protein smoothened, 6.37.
In assay [1], `Cc1ccc(NC(=O)c2cc3c(s2)CCN(c2cccc(-c4nc5ccccc5n4C)c2)C3)cc1Cl` had a pIC50 of 6.51.
Same read-out and setting: the value for `Cn1c(-c2cccc(N3CCc4sc(C(=O)Nc5ccccc5F)cc4C3)c2)nc2ccccc21` was 6.44; that for `Cn1c(-c2cccc(N3CCc4sc(C(=O)N5CCN(C(=O)c6ccco6)CC5)cc4C3)c2)nc2ccccc21` was 6.31.
Regarding `Cn1c(-c2cccc(N3CCc4sc(C(=O)N5CCN(c6ncccn6)CC5)cc4C3)c2)nc2ccccc21`, the figures for the pIC50 (in assay [1]; at Protein smoothened) were 6.82 and 6.63, respectively.
Regarding `Cn1c(-c2cccc(N3CCc4sc(C(=O)N5CCN(c6ccccn6)CC5)cc4C3)c2)nc2ccccc21`, the pIC50 in assay [1] is 6.47.
Take `COc1ccc(N2CCN(C(=O)c3cc4c(s3)CCN(c3cccc(-c5nc6ccccc6n5C)c3)C4)CC2)cc1`: in assay [1], the pIC50 was 5.90.
Same read-out and setting: under `CCN(CC)C(=O)c1cc2c(s1)CCN(c1cccc(-c3nc4ccccc4n3C)c1)C2` stands 5.87.
For `Cn1c(-c2cccc(N3CCc4sc(C(=O)N5CCN(S(C)(=O)=O)CC5)cc4C3)c2)nc2ccccc21`, the pIC50 was 6.66 in assay [1] and 6.43 at Protein smoothened.
`Cn1c(-c2cccc(N3CCc4sc(C(=O)Nc5ccc(F)c(Br)c5)cc4C3)c2)nc2ccccc21`: the pIC50 in assay [1] is 6.46.
Same read-out and setting: under `CNC(=O)c1cc2c(s1)CCN(c1cccc(-c3nc4ccccc4n3C)c1)C2` stands 5.85.
As for `CN1CCN(C(=O)c2cc3c(s2)CCN(c2ccc(Cl)c(-c4nc5ccccc5n4C)c2)C3)CC1`, the figures for the pIC50 (in assay [1]; on Protein smoothened) were 6.89 and 6.87, respectively.
For `Cn1c(-c2cccc(N3CCc4sc(C(=O)N5CCCC5)cc4C3)c2)nc2ccccc21`, in that order: 6.59 and 6.45.
In assay [1], `CC(=O)N1CCN(C(=O)c2cc3c(s2)CCN(c2cccc(-c4nc5ccccc5n4C)c2)C3)CC1` had a pIC50 of 6.43.
In the case of `Cn1c(-c2cc(N3CCc4sc(C(=O)N5CCC(O)CC5)cc4C3)ccc2Cl)nc2ccccc21`, the pIC50 (in assay [1]; on Protein smoothened) was 6.72 throughout.
Turning to `CCN1CCN(C(=O)c2cc3c(s2)CCN(c2cccc(-c4nc5ccccc5n4C)c2)C3)CC1`, in assay [1], the pIC50 is 6.46.
`Cn1c(-c2cccc(N3CCc4sc(C(=O)N5CCN(C(c6ccccc6)c6ccccc6)CC5)cc4C3)c2)nc2ccccc21`: the pIC50 in assay [1] was below 4.82.
In the case of `Cn1c(-c2cccc(N3CCc4sc(C(=O)N5CCN(c6cccc(Cl)c6)CC5)cc4C3)c2)nc2ccccc21`, the pIC50 in assay [1] was 6.42.
Still for that read-out and setting: the value for `COc1cccc(NC(=O)c2cc3c(s2)CCN(c2cccc(-c4nc5ccccc5n4C)c2)C3)c1` was 6.18.
Regarding `Cn1c(-c2cc(N3CCc4sc(C(=O)Nc5cccnc5)cc4C3)ccc2Cl)nc2ccccc21`, the pIC50 in assay [1] was 6.85; on Protein smoothened, 7.25.
In assay [1], `CN(C)C(=O)c1cc2c(s1)CCN(c1cccc(-c3nc4ccccc4n3C)c1)C2` showed a pIC50 of 5.81.
On to `Cn1c(-c2cccc(N3CCc4sc(C(=O)N5CCN(c6ccccc6F)CC5)cc4C3)c2)nc2ccccc21`, for which, in assay [1], the pIC50 is 6.12.
Turning to `Cn1c(-c2cc(N3CCc4sc(C(=O)N5CCN(S(C)(=O)=O)CC5)cc4C3)ccc2Cl)nc2ccccc21`, the pIC50 in assay [1] is 6.62; on Protein smoothened, 6.66.
For `CS(=O)(=O)c1ccc(C(=O)Nc2ccc(Cl)c(-c3ccccn3)c2)c(Cl)c1` [VISMODEGIB], in assay [1], the negative logarithm of the IC50 (pIC50) is 7.60.
